Source: patent US20130030009A1, “METHOD FOR THE TREATMENT AND/OR PREVENTION OF ORAL ALLERGIC SYMPTIONS OF THE LIPS DUE TO ORAL CONTACT WITH A FOOD ALLERGEN” (priority 2010, published 2013)

Columns and labels:
[1] = test system: patients afflicted with oral allergy syndrome; test: Cromolyn Sodium mouth rinse in patients afflicted with oral allergy syndrome; type: in vivo
From the text: Using the teachings of the co-pending patent application entitled “PREPARATIONS FOR TOPICAL PREVENTION AND/OR TREATMENT OF ORAL […] SYMPTOMS DUE TO ORAL CONTACT WITH FRUITS AND/OR VEGETABLES”, filed Dec. […] These patients experienced much relief of their oral allergy and throat allergy symptoms. […] Thus, it seems that sometimes mouth rinsing of Cromolyn Sodium fails to deliver sufficient Cromolyn Sodium to the mast cells of the lip.

[2] = when swallowed may include headache, GI upset, itchiness, irritability, rash, muscle pain; cited from earlier work

For O=C(O)c1cc(=O)c2c(OCC(O)COc3cccc4oc(C(=O)O)cc(=O)c34)cccc2o1 [Cromolyn Sodium], the “lip itchiness of internal and external lip surfaces after mouth rinse” value [1] is given as “some individuals still experienced lip itchiness”, the “relief of oral allergy and throat allergy symptoms” value [1] is given as “much relief” and the side effects [2] is given as “very uncommon”.
